Values quoted from earlier work in patent US7704724B1 (priority 2006, dated 2010).

Columns and labels:
Jack Bean urease = Jack Bean urease (Canavalia ensiformis, UniProt P07374); conditions: read-out: fluoride inhibition constant (Ki)
[1] = molecular target: urease from Klebsiella aerogenes (Klebsiella aerogenes, UniProt P18314); conditions: read-out: fluoride inhibition constant (Ki)
urease from Klebsiella aerogenes, sequence (P18314 whole entry): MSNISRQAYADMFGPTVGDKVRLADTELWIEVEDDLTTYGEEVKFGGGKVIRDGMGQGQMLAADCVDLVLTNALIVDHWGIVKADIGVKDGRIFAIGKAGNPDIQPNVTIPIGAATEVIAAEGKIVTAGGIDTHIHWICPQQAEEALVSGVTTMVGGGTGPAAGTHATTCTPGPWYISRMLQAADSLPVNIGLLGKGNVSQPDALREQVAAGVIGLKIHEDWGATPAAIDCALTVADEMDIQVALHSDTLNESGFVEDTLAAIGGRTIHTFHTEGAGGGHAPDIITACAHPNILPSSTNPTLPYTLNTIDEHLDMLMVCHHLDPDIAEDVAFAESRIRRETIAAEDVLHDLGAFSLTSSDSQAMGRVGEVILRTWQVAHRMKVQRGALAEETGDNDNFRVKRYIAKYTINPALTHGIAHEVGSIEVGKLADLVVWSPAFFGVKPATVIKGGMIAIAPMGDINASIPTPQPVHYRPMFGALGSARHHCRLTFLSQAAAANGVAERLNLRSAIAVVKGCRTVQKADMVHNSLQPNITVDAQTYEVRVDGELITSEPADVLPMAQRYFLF
urease from Klebsiella aerogenes, sequence (P18315 whole entry partner): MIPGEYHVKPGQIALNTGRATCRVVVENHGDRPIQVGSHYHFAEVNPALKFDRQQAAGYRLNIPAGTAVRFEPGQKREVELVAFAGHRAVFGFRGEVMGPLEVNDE
urease from Klebsiella aerogenes, sequence (P18316 whole entry partner): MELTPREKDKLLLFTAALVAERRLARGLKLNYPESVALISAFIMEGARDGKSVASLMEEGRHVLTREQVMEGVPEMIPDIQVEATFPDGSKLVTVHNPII

Jack Bean urease, sequence (P07374 whole entry, looked up): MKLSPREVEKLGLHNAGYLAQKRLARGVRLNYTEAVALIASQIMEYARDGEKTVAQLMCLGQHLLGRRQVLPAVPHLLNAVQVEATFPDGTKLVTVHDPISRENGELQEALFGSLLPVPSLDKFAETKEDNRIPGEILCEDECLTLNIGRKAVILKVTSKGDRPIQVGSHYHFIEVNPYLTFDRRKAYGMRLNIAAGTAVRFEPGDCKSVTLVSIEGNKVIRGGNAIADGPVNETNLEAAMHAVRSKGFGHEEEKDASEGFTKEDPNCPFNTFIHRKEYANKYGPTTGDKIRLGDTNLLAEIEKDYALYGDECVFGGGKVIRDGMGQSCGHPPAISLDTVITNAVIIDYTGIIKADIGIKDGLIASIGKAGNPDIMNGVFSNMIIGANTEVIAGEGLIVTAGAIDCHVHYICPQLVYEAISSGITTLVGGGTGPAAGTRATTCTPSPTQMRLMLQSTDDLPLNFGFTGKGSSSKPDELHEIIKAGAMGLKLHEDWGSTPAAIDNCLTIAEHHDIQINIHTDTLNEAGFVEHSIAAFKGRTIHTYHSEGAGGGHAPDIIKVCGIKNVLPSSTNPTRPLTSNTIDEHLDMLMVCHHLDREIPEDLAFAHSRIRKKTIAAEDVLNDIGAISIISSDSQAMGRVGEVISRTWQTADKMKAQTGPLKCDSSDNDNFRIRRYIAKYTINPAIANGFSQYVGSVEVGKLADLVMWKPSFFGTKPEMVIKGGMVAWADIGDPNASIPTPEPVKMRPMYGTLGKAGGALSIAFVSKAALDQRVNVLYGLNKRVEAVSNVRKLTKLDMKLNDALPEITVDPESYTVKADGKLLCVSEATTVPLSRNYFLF

Structure (SMILES): F [fluoride]
- Ki (Jack Bean urease): 1 mM
- Ki [1]: 200 µM
